# Results as given in patent US20030149021A1, “Piperazine mono(dithio)carbamate ester compounds and analogs thereof: preparation method and uses thereof” (Medinox, Inc., priority 2001, published 2003).
# Assays:
# [1] = test system: Mouse sarcoma 180 (S180); test: Anticancer activity against implanted mouse sarcoma 180 (S180), tumor weight; type: in vivo, mice; conditions: for Inhibition (%) (% reduction in tumor mass): S180 in mice, tumor harvested at day 12
# Protocol: Animals: Kuiming mice 18-22 g were provided by the animal department of Bejing Medical University. ICR mice were provided by Beijing Weitonglihua Experiemental Animal Technology, Inc. Each experiment used the same number of male mice and female mice.
# Tumor cell line: Mouse sarcoma 180 (S180) was provided by the pharmaceutical group of National Key Laboratory of Natural and Mimic Medicine.
# Compound 42 was prepared by the School of Pharmaceutical Sciences of Peking University. Cyclophosphoramide was purchased from Shanghai Hualian Pharmaceutical, Inc.
# Tumor was removed from the mouse abdominal cavity. The tumor was diluted to 5×10^6/ml and implanted to the left axilla subcutaneously (0.2 ml per mouse) under sterile conditions. Twenty four (24) hours after implantation, animals were divided into two groups (10 mice per group), either 42 or cyclophosphoramide was given orally to animals once a day for 10 days.
# At day 12, the tumor was harvested and the average tumor weight of each group was calculated.
# [2] = Preliminary acute toxicity in mice; type: in vivo
Compound,Inhibition (%) (% reduction in tumor mass) ([1]; 30 mg/kg orally once a day for 10 days),toxicity (in words) [2],"No of Death ([2]; mice, dose 10 G/kg, 20 animals at start)",inhibition against S180 (in words) [1],Inhibition (%) (% reduction in tumor mass) ([1]; 100 mg/kg orally once a day for 10 days),Inhibition (%) (% reduction in tumor mass) ([1]; 500 mg/kg orally once a day for 10 days)
"O=P1(N(CCCl)CCCl)NCCCO1 (stereo not drawn) [Cyclophosphoramide, reference compound]",73,,,,,
"CN1CCN(C(=S)SCCC(C#N)(c2ccccc2)c2ccccc2)CC1.Cl [Compound 42, 4-Methyl-piperazine-1-carbodithioc acid 3-cyano-3,3-diphenyl-propyl ester hydrochloride]",,low toxicity,0,significant inhibition,74,80
